Like-named read-outs stand apart in the source and are kept apart here. Peptide text beside a SMILES is read from it. * marks the point of attachment. C16 diacid = O=C(O)CCCCCCCCCCCCCCC(=O)*
Columns and labels:
human GLP‐2R [1] = target: T1, human GLP‐2R (Homo sapiens, UniProt O95838); experiment: cell-based; details: SEM
T1 sequence (O95838 1-553): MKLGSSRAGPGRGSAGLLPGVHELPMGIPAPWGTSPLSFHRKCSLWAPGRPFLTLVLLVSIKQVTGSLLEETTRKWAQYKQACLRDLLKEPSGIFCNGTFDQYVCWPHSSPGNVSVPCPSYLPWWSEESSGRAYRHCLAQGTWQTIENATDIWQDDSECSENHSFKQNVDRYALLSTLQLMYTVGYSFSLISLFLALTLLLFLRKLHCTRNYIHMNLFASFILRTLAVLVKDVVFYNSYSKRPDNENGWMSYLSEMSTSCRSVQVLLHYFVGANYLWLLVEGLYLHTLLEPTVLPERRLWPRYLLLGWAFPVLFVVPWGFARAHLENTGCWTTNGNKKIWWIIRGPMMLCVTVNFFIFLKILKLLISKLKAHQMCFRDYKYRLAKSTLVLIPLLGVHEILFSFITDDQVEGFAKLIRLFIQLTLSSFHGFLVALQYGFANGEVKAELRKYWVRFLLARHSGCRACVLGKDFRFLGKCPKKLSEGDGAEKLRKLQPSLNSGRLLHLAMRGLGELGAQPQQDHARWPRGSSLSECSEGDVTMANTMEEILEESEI
Description: After incubation, the cells were washed twice in 400 μl per well ice‐cold binding buffer and lysed using 500 μl per well of 200 mM NaOH with 1% SDS for 30 min. The samples were counted using the Wizard Gamma Counter (PerkinElmer, Waltham, MA).
Statistical significance was accepted at P < 0.05.

human GLP‐2R [2] = target: T1, human GLP‐2R; experiment: cAMP accumulation, agonism (HitHunter cAMP assay); details: for cAMP activation Log EC50 ± SEM / cAMP activation EC50: COS‐7 cells, human GLP‐2R, 30 min at 37°C, n = 3 in duplicate; for cAMP activation Log EC50 ± SEM: mean ± SEM; for Emax: COS-7, read-out: cAMP activation Emax ± SEM
human GLP‐2R [3] = target: T1, human GLP‐2R; experiment: cAMP accumulation, inhibition of GLP‐2‐induced activation; details: for IC50: SEM; for cAMP inhibition Log IC50 ± SEM / cAMP inhibition IC50: COS‐7 cells, human GLP‐2R, n = 3 in duplicate; for cAMP inhibition Log IC50 ± SEM: 10 min preincubation with antagonist, then GLP‐2 for 20 min, mean ± SEM; for cAMP inhibition IC50: inhibition of GLP‐2‐induced cAMP
human GLP‐1R = human GLP‐1R (Homo sapiens, UniProt P43220); experiment: cAMP accumulation, inhibition of GLP‐1‐mediated response (selectivity); details: COS-7, read-out: Inhibition of GLP‐1‐mediated cAMP response at the human GLP‐1R
human GLP‐1R, sequence (P43220 24-463): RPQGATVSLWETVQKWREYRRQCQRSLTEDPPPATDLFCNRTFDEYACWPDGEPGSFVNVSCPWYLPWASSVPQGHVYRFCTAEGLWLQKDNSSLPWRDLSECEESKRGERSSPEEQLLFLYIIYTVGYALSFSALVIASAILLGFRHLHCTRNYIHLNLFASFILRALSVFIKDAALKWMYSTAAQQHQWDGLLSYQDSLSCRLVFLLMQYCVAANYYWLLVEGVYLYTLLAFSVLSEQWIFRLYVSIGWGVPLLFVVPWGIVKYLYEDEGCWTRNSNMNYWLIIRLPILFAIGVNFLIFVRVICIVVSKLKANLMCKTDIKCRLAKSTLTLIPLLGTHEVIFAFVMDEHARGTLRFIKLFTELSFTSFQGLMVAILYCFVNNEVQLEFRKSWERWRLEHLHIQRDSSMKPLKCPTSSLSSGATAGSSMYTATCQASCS

Structure (SMILES) | IC50 (human GLP‐2R [1]) [µM] | cAMP activation Log EC50 ± SEM (human GLP‐2R [2]) | cAMP activation EC50 (human GLP‐2R [2]) | IC50 (human GLP‐2R [3]) [µM] | Emax (human GLP‐2R [2]; SEM) [%] | EC50 (human GLP‐2R [2]; SEM) [µM] | cAMP inhibition Log IC50 ± SEM (human GLP‐2R [3]) | cAMP inhibition IC50 (human GLP‐2R [3]) | EC50 (human GLP‐2R [2]) [µM] | inhibition at 1 µM (human GLP‐1R) [%]
CC[C@H](C)[C@H](NC(=O)[C@H](Cc1ccccc1)NC(=O)[C@H](CC(=O)O)NC(=O)[C@H](CCCNC(=N)N)NC(=O)[C@H](C)NC(=O)[C@H](C)NC(=O)[C@H](CC(C)C)NC(=O)[C@H](CC(N)=O)NC(=O)[C@H](CC(=O)O)NC(=O)[C@H](CC(C)C)NC(=O)[C@@H](NC(=O)[C@@H](NC(=O)[C@H](CC(N)=O)NC(=O)[C@@H](N)CCSC)[C@@H](C)O)[C@@H](C)CC)C(=O)N[C@@H](CC(N)=O)C(=O)N[C@@H](Cc1c[nH]c2ccccc12)C(=O)N[C@@H](CC(C)C)C(=O)N[C@H](C(=O)N[C@@H](CCC(N)=O)C(=O)N[C@H](C(=O)N[C@@H](CCCCN)C(=O)N[C@H](C(=O)N[C@H](C(=O)N[C@@H](CC(=O)O)C(=O)O)[C@@H](C)O)[C@@H](C)CC)[C@@H](C)O)[C@@H](C)CC [GLP‐2(10‐33)] (H-MNTILDNLAARDFINWLIQTKITD-OH) | 0.126 | No activation | No activation | 0.407 |  |  |  |  |  | 
CC[C@H](C)[C@H](NC(=O)[C@H](Cc1ccccc1)NC(=O)[C@H](CC(=O)O)NC(=O)[C@H](CCCNC(=N)N)NC(=O)[C@H](C)NC(=O)[C@H](C)NC(=O)[C@H](CC(C)C)NC(=O)[C@H](CC(N)=O)NC(=O)[C@H](CC(=O)O)NC(=O)[C@H](CC(C)C)NC(=O)[C@@H](NC(=O)[C@@H](NC(=O)[C@H](CC(N)=O)NC(=O)[C@H](CCSC)NC(=O)[C@H](CCC(=O)O)NC(=O)[C@H](CC(=O)O)NC(=O)[C@H](CO)NC(=O)[C@@H](N)Cc1ccccc1)[C@@H](C)O)[C@@H](C)CC)C(=O)N[C@@H](CC(N)=O)C(=O)N[C@@H](Cc1c[nH]c2ccccc12)C(=O)N[C@@H](CC(C)C)C(=O)N[C@H](C(=O)N[C@@H](CCC(N)=O)C(=O)N[C@H](C(=O)N[C@@H](CCCCN)C(=O)N[C@H](C(=O)N[C@H](C(=O)N[C@@H](CC(=O)O)C(=O)O)[C@@H](C)O)[C@@H](C)CC)[C@@H](C)O)[C@@H](C)CC [GLP‐2(6‐33)] (H-FSDEMNTILDNLAARDFINWLIQTKITD-OH) | 0.0316 |  |  | 0.501 | 46 ± 5.1 | 0.0398 |  |  |  | 
CC[C@H](C)[C@H](NC(=O)[C@H](Cc1ccccc1)NC(=O)[C@H](CC(=O)O)NC(=O)[C@H](CCCNC(=N)N)NC(=O)[C@H](C)NC(=O)[C@H](C)NC(=O)[C@H](CC(C)C)NC(=O)[C@H](CC(N)=O)NC(=O)[C@H](CC(=O)O)NC(=O)[C@H](CC(C)C)NC(=O)[C@@H](NC(=O)[C@@H](NC(=O)[C@H](CC(N)=O)NC(=O)[C@H](CCSC)NC(=O)[C@@H](N)CCC(=O)O)[C@@H](C)O)[C@@H](C)CC)C(=O)N[C@@H](CC(N)=O)C(=O)N[C@@H](Cc1c[nH]c2ccccc12)C(=O)N[C@@H](CC(C)C)C(=O)N[C@H](C(=O)N[C@@H](CCC(N)=O)C(=O)N[C@H](C(=O)N[C@@H](CCCCN)C(=O)N[C@H](C(=O)N[C@H](C(=O)N[C@@H](CC(=O)O)C(=O)O)[C@@H](C)O)[C@@H](C)CC)[C@@H](C)O)[C@@H](C)CC [GLP‐2(9‐33)] (H-EMNTILDNLAARDFINWLIQTKITD-OH) | 0.0794 |  |  |  | 65 ± 3.6 | 0.2 | No inhibition | No inhibition |  | 
CC[C@H](C)[C@H](NC(=O)[C@H](Cc1ccccc1)NC(=O)[C@H](CC(=O)O)NC(=O)[C@H](CCCNC(=N)N)NC(=O)[C@H](C)NC(=O)[C@H](C)NC(=O)[C@H](CC(C)C)NC(=O)[C@H](CC(N)=O)NC(=O)[C@H](CC(=O)O)NC(=O)[C@H](CC(C)C)NC(=O)[C@@H](NC(=O)[C@@H](NC(=O)[C@H](CC(N)=O)NC(=O)[C@H](CCSC)NC(=O)[C@H](CCC(=O)O)NC(=O)[C@@H](N)CC(=O)O)[C@@H](C)O)[C@@H](C)CC)C(=O)N[C@@H](CC(N)=O)C(=O)N[C@@H](Cc1c[nH]c2ccccc12)C(=O)N[C@@H](CC(C)C)C(=O)N[C@H](C(=O)N[C@@H](CCC(N)=O)C(=O)N[C@H](C(=O)N[C@@H](CCCCN)C(=O)N[C@H](C(=O)N[C@H](C(=O)N[C@@H](CC(=O)O)C(=O)O)[C@@H](C)O)[C@@H](C)CC)[C@@H](C)O)[C@@H](C)CC [GLP‐2(8‐33)] (H-DEMNTILDNLAARDFINWLIQTKITD-OH) | 0.0794 |  |  |  | 19 ± 3 | 0.0631 | No inhibition | No inhibition |  | 
CC[C@H](C)[C@H](NC(=O)[C@H](Cc1ccccc1)NC(=O)[C@H](CC(=O)O)NC(=O)[C@H](CCCNC(=N)N)NC(=O)[C@H](C)NC(=O)[C@H](C)NC(=O)[C@H](CC(C)C)NC(=O)[C@H](CC(N)=O)NC(=O)[C@H](CC(=O)O)NC(=O)[C@H](CC(C)C)NC(=O)[C@@H](NC(=O)[C@@H](NC(=O)[C@H](CC(N)=O)NC(=O)[C@H](CCSC)NC(=O)[C@H](CCC(=O)O)NC(=O)[C@H](CC(=O)O)NC(=O)[C@@H](N)CO)[C@@H](C)O)[C@@H](C)CC)C(=O)N[C@@H](CC(N)=O)C(=O)N[C@@H](Cc1c[nH]c2ccccc12)C(=O)N[C@@H](CC(C)C)C(=O)N[C@H](C(=O)N[C@@H](CCC(N)=O)C(=O)N[C@H](C(=O)N[C@@H](CCCCN)C(=O)N[C@H](C(=O)N[C@H](C(=O)N[C@@H](CC(=O)O)C(=O)O)[C@@H](C)O)[C@@H](C)CC)[C@@H](C)O)[C@@H](C)CC [GLP‐2(7‐33)] (H-SDEMNTILDNLAARDFINWLIQTKITD-OH) | 0.02 |  |  |  | 27 ± 3.8 |  | No inhibition | No inhibition | 0.126 | 
CC[C@H](C)[C@H](NC(=O)[C@H](Cc1ccccc1)NC(=O)[C@H](CC(=O)O)NC(=O)[C@H](CCCNC(=N)N)NC(=O)[C@H](C)NC(=O)[C@H](C)NC(=O)[C@H](CC(C)C)NC(=O)[C@H](CC(N)=O)NC(=O)[C@H](CC(=O)O)NC(=O)[C@H](CC(C)C)NC(=O)[C@@H](NC(=O)[C@@H](NC(=O)[C@H](CC(N)=O)NC(=O)[C@H](CCSC)NC(=O)[C@H](CCC(=O)O)NC(=O)[C@H](CC(=O)O)NC(=O)[C@H](CO)NC(=O)[C@H](Cc1ccccc1)NC(=O)[C@@H](N)CO)[C@@H](C)O)[C@@H](C)CC)C(=O)N[C@@H](CC(N)=O)C(=O)N[C@@H](Cc1c[nH]c2ccccc12)C(=O)N[C@@H](CC(C)C)C(=O)N[C@H](C(=O)N[C@@H](CCC(N)=O)C(=O)N[C@H](C(=O)N[C@@H](CCCCN)C(=O)N[C@H](C(=O)N[C@H](C(=O)N[C@@H](CC(=O)O)C(=O)O)[C@@H](C)O)[C@@H](C)CC)[C@@H](C)O)[C@@H](C)CC [GLP‐2(5‐33)] (H-SFSDEMNTILDNLAARDFINWLIQTKITD-OH) | 0.0126 |  |  | 0.2 | 40 ± 4.1 | 0.0251 |  |  |  | 
CC[C@H](C)[C@H](NC(=O)[C@H](Cc1ccccc1)NC(=O)[C@H](CC(=O)O)NC(=O)[C@H](CCCNC(=N)N)NC(=O)[C@H](C)NC(=O)[C@H](C)NC(=O)[C@H](CC(C)C)NC(=O)[C@H](CC(N)=O)NC(=O)[C@H](CC(=O)O)NC(=O)[C@H](CC(C)C)NC(=O)[C@@H](NC(=O)[C@@H](NC(=O)[C@@H](N)CC(N)=O)[C@@H](C)O)[C@@H](C)CC)C(=O)N[C@@H](CC(N)=O)C(=O)N[C@@H](Cc1c[nH]c2ccccc12)C(=O)N[C@@H](CC(C)C)C(=O)N[C@H](C(=O)N[C@@H](CCC(N)=O)C(=O)N[C@H](C(=O)N[C@@H](CCCCN)C(=O)N[C@H](C(=O)N[C@H](C(=O)N[C@@H](CC(=O)O)C(=O)O)[C@@H](C)O)[C@@H](C)CC)[C@@H](C)O)[C@@H](C)CC [GLP‐2(11‐33)] (H-NTILDNLAARDFINWLIQTKITD-OH) | 0.794 | No activation | No activation |  |  |  | No inhibition | No inhibition |  | 
CC[C@H](C)[C@H](NC(=O)[C@H](Cc1ccccc1)NC(=O)[C@H](CC(=O)O)NC(=O)[C@H](CCCNC(=N)N)NC(=O)[C@H](C)NC(=O)[C@H](C)NC(=O)[C@H](CC(C)C)NC(=O)[C@H](CCCCNC(=O)CCCCCCCCCCCCCCC(=O)O)NC(=O)[C@H](CC(=O)O)NC(=O)[C@H](CC(C)C)NC(=O)[C@@H](NC(=O)[C@@H](NC(=O)[C@H](CC(N)=O)NC(=O)[C@H](CCSC)NC(=O)[C@H](CCC(=O)O)NC(=O)[C@H](CC(=O)O)NC(=O)[C@H](CO)NC(=O)[C@H](Cc1ccccc1)NC(=O)[C@H](CO)NC(=O)CNC(=O)[C@@H](N)CC(=O)O)[C@@H](C)O)[C@@H](C)CC)C(=O)N[C@@H](CC(N)=O)C(=O)N[C@@H](Cc1c[nH]c2ccccc12)C(=O)N[C@@H](CC(C)C)C(=O)N[C@H](C(=O)N[C@@H](CCC(N)=O)C(=O)N[C@H](C(=O)N[C@@H](CCCCN)C(=O)N[C@H](C(=O)N[C@H](C(=O)N[C@@H](CC(=O)O)C(=O)O)[C@@H](C)O)[C@@H](C)CC)[C@@H](C)O)[C@@H](C)CC [GLP‐2(3‐33)[N16K](C16‐diacid/16)] (H-DGSFSDEMNTILDK(C16 diacid)LAARDFINWLIQTKITD-OH) |  |  |  |  |  |  |  |  |  | 72

— publication PMC9541843, “N‐terminal alterations turn the gut hormone GLP‐2 into an antagonist with gradual loss of GLP‐2 receptor selectivity towards more GLP‐1 receptor interaction” (British Journal of Pharmacology, 2022)
